The results in this text go back to publication PMC12548400, “Urease promotes pH homeostasis and growth of Staphylococcus aureus in skin-like conditions” (Journal of Bacteriology, 2025).

Assay [1] has as its target T1, S. aureus urease (Staphylococcus aureus, UniProt Q2FEK3).
T1 construct: gene ureC; native urease in cell-free lysates of S. aureus LAC (USA300); with UreA, UreB (urease subunits)
Briefly: urease activity in cell-free lysate with […] urea; coupled glutamate dehydrogenase/NADH assay. The class given is biochemical.

Another assay deals with T2, jack bean urease (Canavalia ensiformis, UniProt P07374).
T2 construct: commercially purified jack bean urease
Briefly: inhibition of purified urease; coupled glutamate dehydrogenase/NADH depletion assay at […] nm. It counts as biochemical.

The target in assay [2] is T3, S. aureus urease (Staphylococcus aureus, UniProt P67403).
T3 construct: gene ureC; native urease in cell lysates of S. aureus LAC (USA300); with UreA, UreB (urease subunits)
Briefly: urea hydrolysis in lysates by coupled enzyme assay; activity lost in ureD::Tn mutant and restored by complementation. The class given is cell-based.

T3 sequence (P67403 whole entry): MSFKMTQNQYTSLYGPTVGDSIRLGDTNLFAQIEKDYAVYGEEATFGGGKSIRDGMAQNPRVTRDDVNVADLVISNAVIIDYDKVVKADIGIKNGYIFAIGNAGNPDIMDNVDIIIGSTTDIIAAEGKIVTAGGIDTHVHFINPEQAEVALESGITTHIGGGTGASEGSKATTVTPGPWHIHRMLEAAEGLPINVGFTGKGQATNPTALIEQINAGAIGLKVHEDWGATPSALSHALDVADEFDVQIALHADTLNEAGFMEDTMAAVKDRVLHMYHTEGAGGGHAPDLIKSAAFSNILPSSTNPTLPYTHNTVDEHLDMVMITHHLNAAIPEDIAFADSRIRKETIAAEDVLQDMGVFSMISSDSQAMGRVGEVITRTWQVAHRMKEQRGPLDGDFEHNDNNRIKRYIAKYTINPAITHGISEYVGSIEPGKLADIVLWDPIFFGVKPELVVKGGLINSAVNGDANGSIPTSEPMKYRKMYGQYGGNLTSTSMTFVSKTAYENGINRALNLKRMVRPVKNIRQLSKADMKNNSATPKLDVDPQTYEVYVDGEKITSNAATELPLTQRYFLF
T1 sequence (Q2FEK4 whole entry): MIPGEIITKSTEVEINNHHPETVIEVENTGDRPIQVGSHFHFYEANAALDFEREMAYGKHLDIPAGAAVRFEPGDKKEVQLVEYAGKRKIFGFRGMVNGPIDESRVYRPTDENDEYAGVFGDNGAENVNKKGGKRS
T1 sequence (Q2FEK3 whole entry): as the sequence (P67403 whole entry) above
T1 sequence (Q2FEK5 whole entry, further chain): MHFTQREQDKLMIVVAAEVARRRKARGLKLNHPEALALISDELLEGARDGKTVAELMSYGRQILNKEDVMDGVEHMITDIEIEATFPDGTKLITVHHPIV
T2 sequence (P07374 whole entry, looked up): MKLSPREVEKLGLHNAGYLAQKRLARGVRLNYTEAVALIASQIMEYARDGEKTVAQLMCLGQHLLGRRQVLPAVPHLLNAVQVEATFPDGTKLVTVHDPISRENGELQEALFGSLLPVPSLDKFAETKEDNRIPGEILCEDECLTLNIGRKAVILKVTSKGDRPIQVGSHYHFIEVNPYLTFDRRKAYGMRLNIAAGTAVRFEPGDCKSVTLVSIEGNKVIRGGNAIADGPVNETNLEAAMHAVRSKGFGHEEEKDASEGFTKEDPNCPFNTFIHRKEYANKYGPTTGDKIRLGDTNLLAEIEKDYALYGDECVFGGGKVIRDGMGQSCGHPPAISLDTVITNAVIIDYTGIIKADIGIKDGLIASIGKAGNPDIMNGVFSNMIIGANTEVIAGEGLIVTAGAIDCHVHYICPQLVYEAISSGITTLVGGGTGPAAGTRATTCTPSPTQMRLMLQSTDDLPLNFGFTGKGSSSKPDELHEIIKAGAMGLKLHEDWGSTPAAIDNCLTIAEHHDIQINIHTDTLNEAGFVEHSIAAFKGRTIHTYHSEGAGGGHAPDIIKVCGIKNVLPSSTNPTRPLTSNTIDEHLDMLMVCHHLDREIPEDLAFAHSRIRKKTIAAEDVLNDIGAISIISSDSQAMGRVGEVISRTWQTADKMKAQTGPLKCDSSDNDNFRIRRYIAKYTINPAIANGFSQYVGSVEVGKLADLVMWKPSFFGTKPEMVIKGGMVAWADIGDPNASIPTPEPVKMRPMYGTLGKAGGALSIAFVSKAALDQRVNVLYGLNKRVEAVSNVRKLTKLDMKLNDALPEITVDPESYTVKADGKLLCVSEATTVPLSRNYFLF

Take `NP(N)(=O)NC(=O)c1ccc(F)cc1` [FF, N-(diaminophosphinyl)-4-fluorobenzenamide]: the values for the IC50 at S. aureus urease [1] and against jack bean urease were 34.2 nM and 131 nM, respectively. Take `NC(N)=O` [urea]: on S. aureus urease [2], the “urea hydrolysis in lysates by coupled enzyme assay; activity lost in ureD::Tn mu” value was “loss of urease activity in the mutant strain and reconstitution of activity in the complementation strain using a coupled enzyme assay”.
